Source: the supplement of paper PMC10307832

What was measured:
Test in all cases: relative viability (nuclei count vs DMSO), 5 days (fraction); higher = more cells survive
EMC-BAC-2 = test system: EMC-BAC-2
Outline: (§1)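 Relative viability divides the nuclei count in treated wells by that in vehicle wells. Lung cancer cell lines were seeded in 1536-well plates, dosed by pin tool the next day, and fixed and stained after 5 days in one step with final 0.05% Triton X-100, 1% formaldehyde and 1 ug/ml Hoechst. Dosing was a single drug or a fixed anchor-drug dose plus five library-drug doses (not always all listed) in √10 steps, and values are medians of duplicate plates imaged at 4×.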

NCI-H2085 = test system: NCI-H2085
Outline: as §1

ChaGo-K-1 = test system: ChaGo-K-1
Outline: as §1

EPLC-272H = test system: EPLC-272H
Outline: as §1

NCI-H23 = test system: NCI-H23
Outline: as §1

NCI-H322M = test system: NCI-H322M
Outline: as §1

LCLC-97TM1 = test system: LCLC-97TM1
Outline: as §1

NCI-H1944 = test system: NCI-H1944
Outline: as §1

NCI-H1651 = test system: NCI-H1651
Outline: as §1

NCI-H1793 = test system: NCI-H1793
Outline: as §1

HCC-44 = test system: HCC-44
Outline: as §1

Clc1ccc(Nc2nnc(Cc3ccncc3)c3ccccc23)cc1 [Vatalanib] + CC1(C)CCC(c2ccc(Cl)cc2)=C(CN2CCN(c3ccc(C(=O)NS(=O)(=O)c4ccc(N[C@H](CCN5CCOCC5)CSc5ccccc5)c(S(=O)(=O)C(F)(F)F)c4)cc3)CC2)C1 [Navitoclax] (partner 0.5 µM)
relative viability (EMC-BAC-2; first compound 0.4 µM): 1.23 | relative viability (EMC-BAC-2; first compound 1.265 µM): 1.15 | relative viability (EMC-BAC-2; first compound 4 µM): 1.14 | relative viability (NCI-H2085; first compound 0.04 µM): 1.12 | relative viability (NCI-H2085; first compound 0.1265 µM): 1.25 | relative viability (NCI-H2085; first compound 0.4 µM): 1.29 | relative viability (NCI-H2085; first compound 1.265 µM): 1.05 | relative viability (NCI-H2085; first compound 4 µM): 1.01 | relative viability (ChaGo-K-1; first compound 0.04 µM): 0.565 | relative viability (ChaGo-K-1; first compound 0.1265 µM): 0.94 | relative viability (ChaGo-K-1; first compound 1.265 µM): 0.934 | relative viability (ChaGo-K-1; first compound 4 µM): 1.16 | relative viability (EPLC-272H; first compound 0.04 µM): 1.08 | relative viability (EPLC-272H; first compound 0.1265 µM): 1.04 | relative viability (EPLC-272H; first compound 0.4 µM): 1.05 | relative viability (EPLC-272H; first compound 1.265 µM): 1.05 | relative viability (EPLC-272H; first compound 4 µM): 1.13 | relative viability (NCI-H23; first compound 0.04 µM): 0.772 | relative viability (NCI-H23; first compound 0.1265 µM): 0.699 | relative viability (NCI-H23; first compound 0.4 µM): 0.841 | relative viability (NCI-H23; first compound 1.265 µM): 0.745 | relative viability (NCI-H23; first compound 4 µM): 0.825 | relative viability (NCI-H322M; first compound 0.04 µM): 1.22 | relative viability (NCI-H322M; first compound 0.1265 µM): 1.21 | relative viability (NCI-H322M; first compound 0.4 µM): 1.27 | relative viability (NCI-H322M; first compound 1.265 µM): 1.14 | relative viability (NCI-H322M; first compound 4 µM): 1.09 | relative viability (LCLC-97TM1; first compound 0.04 µM): 0.631 | relative viability (LCLC-97TM1; first compound 0.1265 µM): 0.511 | relative viability (LCLC-97TM1; first compound 0.4 µM): 0.488 | relative viability (LCLC-97TM1; first compound 1.265 µM): 0.401 | relative viability (LCLC-97TM1; first compound 4 µM): 0.38 | relative viability (NCI-H1944; first compound 0.04 µM): 1.01 | relative viability (NCI-H1944; first compound 0.1265 µM): 1.02 | relative viability (NCI-H1944; first compound 0.4 µM): 1.06 | relative viability (NCI-H1944; first compound 1.265 µM): 1.08 | relative viability (NCI-H1944; first compound 4 µM): 1.06 | relative viability (NCI-H1651; first compound 0.04 µM): 0.928 | relative viability (NCI-H1651; first compound 0.1265 µM): 1.09 | relative viability (NCI-H1651; first compound 0.4 µM): 1.11 | relative viability (NCI-H1651; first compound 1.265 µM): 1.02 | relative viability (NCI-H1651; first compound 4 µM): 1.08 | relative viability (NCI-H1793; first compound 0.04 µM): 0.452 | relative viability (NCI-H1793; first compound 0.1265 µM): 0.435 | relative viability (NCI-H1793; first compound 0.4 µM): 0.498 | relative viability (NCI-H1793; first compound 1.265 µM): 0.318 | relative viability (NCI-H1793; first compound 4 µM): 0.502 | relative viability (HCC-44; first compound 0.04 µM): 0.933 | relative viability (HCC-44; first compound 0.1265 µM): 0.916 | relative viability (HCC-44; first compound 0.4 µM): 0.93 | relative viability (HCC-44; first compound 1.265 µM): 0.915 | relative viability (HCC-44; first compound 4 µM): 0.919
